How the values were obtained:
femoral fracture callus = experiment: Murine stabilized femoral fracture, microCT analysis of fracture callus; type: in vivo, mice; settings: for fracture callus densities / bone volume: 3 nmol/kg/day subcutaneous, 14, 28 or 56 days, FIG. 7
MC3T3E1 cells = experiment: Gene expression ratio of bone markers in MC3T3E1 cells; type: cell-based
Protocol: (§1) Referring now to FIG. 4, alkaline phosphatase (ALP) expression ratio for both targeted and non-targeted PTHrP were analyzed in MC3T3E1 cells. The ALP ratio is calculated by (Treated ALP expression/Vehicle control ALP expression). Higher expression levels are associated with greater osteoblast activity and is a key protein involved in bone mineralization.
as §1, with “5, osteopontin (OPN)” for “4, alkaline phosphatase (ALP)”, “OPN” for “ALP”
Referring now to FIG. 6, gene expression ratio of several key bone markers for both targeted and non-targeted PTHrP were analyzed in MC3T3E1 cells. Activity markers include alkaline phosphatase (ALP), Collagen I-alpha (Col1-alpha), osteocalcin (OC), osteoprotegerin (OPG), osteopontin (OPN, and Osterix (OSX). The gene expression ratio is calculated by (Treated gene expression/Vehicle control gene expression). The targeted PTHrP has activity as low as 1 pM.

liver and kidneys = experiment: Blind histopathology of liver and kidney after 28 days of treatment; settings: 31 nmol/kg/day subcutaneous
Protocol: Referring now to Table 1, mice were treated with 31 nmol/kg/day subcutaneous injections of PTHrPD10 (“Targeted Drug”) or saline. Swiss ND4 mice were treated for 28 days. Mice were sacrificed at the end of the study and liver and kidneys were excised. Organs were fixed in formalin and paraffin sections were made from each. A veterinary pathologist performed a randomized blind analysis on the organs.

PTHR1 (R^0 conformation) = biological target: T1, PTHR1 (R^0 conformation) (Homo sapiens, UniProt Q03431); settings: direct comparative studies; cited from earlier work
T1 sequence (Q03431 27-593): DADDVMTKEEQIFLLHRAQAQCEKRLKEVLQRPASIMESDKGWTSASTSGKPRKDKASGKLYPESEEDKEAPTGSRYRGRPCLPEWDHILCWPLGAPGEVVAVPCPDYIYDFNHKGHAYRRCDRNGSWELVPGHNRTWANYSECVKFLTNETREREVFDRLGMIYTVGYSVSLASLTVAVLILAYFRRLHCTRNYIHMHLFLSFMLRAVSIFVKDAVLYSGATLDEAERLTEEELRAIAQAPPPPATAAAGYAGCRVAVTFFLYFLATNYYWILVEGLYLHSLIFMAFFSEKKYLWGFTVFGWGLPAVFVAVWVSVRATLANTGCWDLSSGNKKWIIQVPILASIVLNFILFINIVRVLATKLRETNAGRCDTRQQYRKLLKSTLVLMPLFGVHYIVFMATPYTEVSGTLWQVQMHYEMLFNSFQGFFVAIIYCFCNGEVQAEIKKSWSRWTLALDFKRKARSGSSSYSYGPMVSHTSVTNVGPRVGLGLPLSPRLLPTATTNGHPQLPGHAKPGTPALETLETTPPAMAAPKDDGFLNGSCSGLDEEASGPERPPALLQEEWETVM

PTHR1 = biological target: T2, PTHR1 (Homo sapiens, UniProt Q03431); settings: time-course washout assay; cited from earlier work
T2 sequence (Q03431 27-593): T1 sequence (Q03431 27-593)

SVSEIQLMHNLGKHLNSMERVEWLRKKLQDVHNFVALGAPLAPRDADDDDDDDDDD (PTH1-46D10) [PTH 1-46D10]
bone density (microCT) (femoral fracture callus; 2 weeks, fracture callus, vs saline, FIG. 3): statistically denser than saline controls

VSEHQLLHDKGKSIQDLRRRFFLHHLIAEIHTAGIRATSEVSPNSDDDDDDDDDD [PTHrP1-46D10]
concentration at which gene expression activity is seen (activity as low as) (MC3T3E1 cells; ALP, Col1-alpha, OC, OPG, OPN, OSX, FIG. 6): ≤ 1 pM | osteopontin (OPN) expression ratio (MC3T3E1 cells; treated/vehicle control, FIG. 5): does not reduce the efficacy of the drug | alkaline phosphatase (ALP) expression ratio (MC3T3E1 cells; treated/vehicle control, standardized to GAPDH, FIG. 4): does not reduce the efficacy of the drug | fracture callus densities / bone volume (femoral fracture callus; listed as targeted PTHrP): Greater densities can be observed in the targeted PTHrP over the free PTHrp at every time point | fracture callus densities / bone volume (femoral fracture callus; listed as targeted drug): not only improves fracture healing but that it also accelerates fracture healing | bone densities around fractures (microCT) (femoral fracture callus; 31 nmol/kg/day, daily for 4 weeks, closed femoral fracture, FIG. 1): increased bone densities around fractures significantly higher than that of free PTHrP and Saline | trabecular spacing (microCT) (femoral fracture callus; 4 weeks, fracture callus, vs saline, FIG. 2): statistically tighter spacing than does the saline control | toxicity, overall pathologist assessment of liver and kidney (liver and kidneys): No detectable toxicity was observed

SVSEIQLMHNLGKHLNSMERVEWLRKKLQDVHNF [PTH(1-34)]
affinity for the R^0 state (PTHR1 (R^0 conformation)): much higher affinity for R^0 than PTHrP(1-36) | duration of the cAMP response (PTHR1): more prolonged response than PTHrP(1-36)

— patent publication US10960054B2, “Fracture targeted bone regeneration through parathyroid hormone receptor stimulation” (Purdue Research Foundation, priority 2016, dated 2021)
